This test deals with cHet primary cortical neurons. The test is described as follows: In vitro primary cortical neuron culture, Sholl analysis of Ctip2+ neurons. The class given is cell-based, mouse. On the procedure:
Lastly, to test whether (1-3)IGF-1 treatment rescues the decreased complexity of Dyrk1a cHet neurons, we cultured control and cHet primary cortical neurons. Neurons analyzed were restricted to Ctip2+ neurons, as we are focused on the impact of Dyrk1a mutations on the growth and connectivity of layer V pyramidal neurons.
In vitro primary neuronal culture: Brains from P0 mice were removed, and whole cortices were dissected. Individual cortices were placed into 1 mL chilled dissecting media (1× HBSS (14175-095), 30 mM glucose, 60 μM HEPES). After aspiration of the dissecting media, the tissue was enzymatically dissociated with papain (LS003126) that was previously diluted 1:80 in pre-warmed plating media [Neurobasal A (10888-022), 5% FBS (16000044), and 1% penicillin/streptomycin (p/s)/0.25% glutamine (10378-016)] and incubated at 37° C. for 15 min. The papain was removed, and the tissue was pipetted into a single-cell suspension in plating media. The suspensions were filtered using 40 μm nylon cell strainers (Fisher Scientific, #352340), and the filtered suspension was centrifuged at 280 RCF for 5 min. […] Samples of the suspensions were diluted 1:4 in trypan blue, and cells were counted with a manual hemocytometer for determination of sample concentration. […]
All coverslip images were taken at 40× magnification on an Olympus VS-120 epifluorescence microscope and analyzed with ImageJ (NIH). […]

Entries after “also recorded” stand apart in the source; their conditions may differ.

For the substance “(1-3)IGF-1: a tripeptide cleaved from the N-terminus of IGF-1; acquired from VWR/Bachem, CAS No. 32302-76-4 (GPE; Insulin-like growth factor 1; UniProt P05019 49-51, looked up, fragment)”, the “neuronal complexity (Sholl arborization) of cHet neurons” value (100 ng/mL daily from DIV13 to DIV15, Ctip2+ neurons, DIV15) is given as “rescued; also recorded: rescues decreased arborization”. Also, the “neuronal complexity of control neurons” value (100 ng/mL daily from DIV13 to DIV15, DIV15) is “did not affect control neurons”.

These data come from patent US20240148835A1, “TREATING DISORDERS ASSOCIATED WITH DYRK1A DYSFUNCTION” (UNIVERSITY OF FLORIDA RESEARCH FOUNDATION, INCORPORATED, priority 2021, published 2024).
